Patent US20050089473A1, “Potassium channel mediated delivery of agents through the blood-brain barrier” (Cedars-Sinai Medical Center, priority 2003, published 2005)
Where a name gives a salt, the structure may show the parent alone.

Key:
[1] = system: GBM xenograft; assay: In vivo BTB permeability (Ki by QAR) in GBM-xenograft nude rat model
Description: All animal experiments were conducted in accordance with policies set by the Institutional Animal Care and Usage Committee and NIH guidelines. A rat syngeneic tumor model was prepared using female Wistar rats and a human-tumor xenograft model in athymic nude rats weighing 180-200 g were prepared for the BBB/BTB permeability studies. Although brain tumor blood vessel development is rapid in rats compared to humans, this variable should not affect the findings or conclusions because the study analyzes the response of blood vessels, regardless of how rapidly they developed, to vasomodulators. The optimum number of tumor cells and incubation period for in vivo tumor growth was determined in separate experiments. Rat glioma (RG2) cells (1×10^5) in 5 μl of medium with 1.2% methylcellulose were injected into the basal ganglia of Wistar rats, while nude rats were injected with glioblastoma multiforme (GBM) primary cells (5×10^5). The coordinates were 5-mm lateral to the bregma and 4.5 mm deep to the basal ganglia. […]
The unilateral transfer constant, Ki (μl/g/min), which is an initial rate for blood-to-brain transfer of a radiotracer, was calculated as described by Ohno et al. (Ohno, K., Pettigrew, K. O., and Rapsport, S. T. Lower limits of cerebrovascular permeability to […] in the conscious rat. Am. J. Physiol., 253: H299-H307, 1978). […]

[2] = system: metastatic lung brain tumors; assay: [14C]AIB uptake in metastatic lung brain tumor model; format: in vivo; conditions: intravenous co-injection
[3] = system: GBM and RG2 brain tumors; assay: GFP-adenoviral and erbB-2 antibody delivery across the BTB; format: in vivo, rat
Description: GFP-Adv constructs were prepared as described by Smith et al. (Smith, G. M., Berry, R. L., Yang, J., and Tanelian, D. Electrophysiological analysis of dorsal root ganglion neurons pre- and post-coexpression of green fluorescent protein and functional 5-HHT3 recepter. J. Neurophysiol. 77:3115-3121, 1997) with slight modifications. GFP gene was first cloned into a shuttle vector, pAdTrack-CMV, and the resultant plasmid was linearized by digesting it with restriction endonuclease Pipe I, and subsequently co-transformed into E. Coli cells with an adenoviral backbone plasmid, pAdEasy-1. Recombinant plasmids were transfected into 293 cells. The presence of recombinant adenoviruses was verified by RT-PCR. GFP-Adv (1×10^9 pfu/ml) was infused intracarotidly (i.c.) with or without MS in rats with implanted GBM. Neu rabbits polyclonal and Her-2 MAb, which are specific for rat and human erbB-2 receptors, respectively, were used. […] Her-2 MAbs bound to Her-2 receptors, in vivo was detected by incubating rat brain cryosections as per the manufacturer's (Molecular Probes, OR) procedure with Alexa Flour-647 conjugated secondary antibody (Zecon labeling kit) that specifically binds to the IgG1 fragment of Her-2 MAb. Neu antibody binding to erbB-2 receptors in RG2 brain tumor sections was detected using anti-rabbit IgG conjugated with TRITC. […]

SMILES: Nc1cc(N2CCCCC2)nc(N)[n+]1OS(=O)(=O)[O-] [MS, minoxidil sulfate]
- BTB permeability (Ki) ([1]; GBM xenograft nude rat, i.c. MS 30 μg/kg/min, glibenclamide 5 μg/kg/min for 15 min): 52 ± 8 µL/g/min
- BBB permeability in normal brain surrounding tumor or normal contralateral brain ([1]; i.c. infusion): did not significantly affect BBB permeability
- Increase of [14C]AIB uptake to the tumor [2]: approximately three-fold
- Delivery of Her-2 MAb and Neu antibody to brain tumor ([3]; MS 30 μg/kg/min i.c. 15 min, then antibody 1 mg/kg): enhanced delivery of Her-2 MAb selectively to GBM and Neu to RG2
- Delivery of adv-GFP to brain tumor ([3]; MS i.c. with GFP-Adv 1×10^9 pfu/ml, GBM nude rats): enhanced adv-GFP delivery to brain tumors
